{"source": "patent US8183262B2", "about": "“Pyridine derivatives as mGluR2 antagonists” (Hoffmann-La Roche Inc., priority 2007, dated 2012)", "data": [{"values": [{"smiles": "NS(=O)(=O)c1ccc(-c2cn(-c3nc(-c4ccc(Cl)cc4)cc(C(F)(F)F)n3)cn2)cc1", "note": "[Example 175, 4-{1-[4-(4-Chloro-phenyl)-6-trifluoromethyl-pyrimidin-2-yl]-1H-imidazol-4-yl}-benzenesulfonamide]", "melting point": "324 °C"}, {"smiles": "Cc1cc(-c2ccc(Cl)cc2)nc(-n2cnc(-c3cccc(S(N)(=O)=O)c3)c2)n1", "note": "[Example 176, 3-{1-[4-(4-Chloro-phenyl)-6-methyl-pyrimidin-2-yl]-1H-imidazol-4-yl}-benzenesulfonamide]", "melting point": "275 °C"}, {"smiles": "NS(=O)(=O)c1cccc(-c2cn(-c3nc(-c4ccc(Cl)cc4)cc(C(F)(F)F)n3)cn2)c1", "note": "[Example 177, 3-{1-[4-(4-Chloro-phenyl)-6-trifluoromethyl-pyrimidin-2-yl]-1H-imidazol-4-yl}-benzenesulfonamide]", "melting point": "225 °C"}, {"smiles": "NS(=O)(=O)c1cccc(-c2cccc(-c3nc(-c4ccc(Cl)cc4)cc(C(F)(F)F)n3)c2)c1", "note": "[Example 178, 3′-[4-(4-Chloro-phenyl)-6-trifluoromethyl-pyrimidin-2-yl]-biphenyl-3-sulfonic acid amide]", "melting point": "165 °C"}, {"smiles": "NS(=O)(=O)c1cccc(-c2cc(-c3nc(-c4ccc(Cl)cc4)cc(C(F)(F)F)n3)ccn2)c1", "note": "[Example 179, 3-{4-[4-(4-Chloro-phenyl)-6-trifluoromethyl-pyrimidin-2-yl]-pyridin-2-yl}-benzenesulfonamide]", "melting point": "182 °C"}, {"smiles": "Cc1cc(-c2ccc(Cl)cc2)nc(-n2cnc(-c3ccc(S(N)(=O)=O)cc3)c2)n1", "note": "[Example 180, 4-{1-[4-(4-Chloro-phenyl)-6-methyl-pyrimidin-2-yl]-1H-imidazol-4-yl}-benzenesulfonamide]", "melting point": "312 °C"}, {"smiles": "NS(=O)(=O)c1cnc(-c2cn(-c3nc(-c4ccc(C(F)(F)F)cc4)cc(C(F)(F)F)n3)cn2)s1", "note": "[Example 181, 2-{1-[4-Trifluoromethyl-6-(4-trifluoromethyl-phenyl)-pyrimidin-2-yl]-1H-imidazol-4-yl}-thiazole-5-sulfonic acid amide]", "melting point": "264 °C"}, {"smiles": "NS(=O)(=O)c1cnc(-c2cn(-c3nc(-c4ccc(Cl)cc4)cc(C(F)(F)F)n3)cn2)s1", "note": "[Example 182, 2-{1-[4-(4-Chloro-phenyl)-6-trifluoromethyl-pyrimidin-2-yl]-1H-imidazol-4-yl}-thiazole-5-sulfonic acid amide]", "melting point": "263 °C"}, {"smiles": "Cc1cc(-c2ccc(C(F)(F)F)cc2)nc(-n2cnc(-c3ccc(S(N)(=O)=O)cc3)c2)n1", "note": "[Example 183, 4-{1-[4-Methyl-6-(4-trifluoromethyl-phenyl)-pyrimidin-2-yl]-1H-imidazol-4-yl}-benzenesulfonamide]", "melting point": "323 °C"}, {"smiles": "Cc1cc(-c2ccc(C(F)(F)F)cc2)nc(-n2cnc(-c3cccc(S(N)(=O)=O)c3)c2)n1", "note": "[Example 184, 3-{1-[4-Methyl-6-(4-trifluoromethyl-phenyl)-pyrimidin-2-yl]-1H-imidazol-4-yl}-benzenesulfonamide]", "melting point": "186 °C"}, {"smiles": "Nc1ccc(-c2cn(-c3nc(-c4cccc(Cl)c4)cc(C(F)(F)F)n3)cn2)cn1", "note": "[Example 186, 5-{1-[4-(3-Chloro-phenyl)-6-trifluoromethyl-pyrimidin-2-yl]-1H-imidazol-4-yl}-pyridin-2-ylamine]", "melting point": "248 °C"}, {"smiles": "NS(=O)(=O)c1ccc(-c2cn(-c3nc(-c4cccc(Cl)c4)cc(C(F)(F)F)n3)cn2)s1", "note": "[Example 188, 5-{1-[4-(3-Chloro-phenyl)-6-trifluoromethyl-pyrimidin-2-yl]-1H-imidazol-4-yl}-thiophene-2-sulfonic acid amide]", "melting point": "280 °C"}, {"smiles": "Cc1cc(-c2ccc(Cl)cc2)nc(-c2ccnc(-c3cccc(S(N)(=O)=O)c3)c2)n1", "note": "[Example 189, 3-{4-[4-(4-Chloro-phenyl)-6-methyl-pyrimidin-2-yl]-pyridin-2-yl}-benzenesulfonamide]", "melting point": "224 °C"}, {"smiles": "Cc1cc(-c2ccc(Cl)cc2)nc(-n2cnc(-c3ccc(S(N)(=O)=O)s3)c2)n1", "note": "[Example 190, 5-{1-[4-(4-Chloro-phenyl)-6-methyl-pyrimidin-2-yl]-1H-imidazol-4-yl}-thiophene-2-sulfonic acid amide]", "melting point": "281 °C"}, {"smiles": "Cc1cc(-c2ccc(C(F)(F)F)cc2)nc(-n2cnc(-c3ccc(S(N)(=O)=O)s3)c2)n1", "note": "[Example 191, 5-{1-[4-Methyl-6-(4-trifluoromethyl-phenyl)-pyrimidin-2-yl]-1H-imidazol-4-yl}-thiophene-2-sulfonic acid amide]", "melting point": "277 °C"}, {"smiles": "Cc1cc(-c2ccc(Cl)cc2)nc(-c2ccnc(-c3ccc(S(N)(=O)=O)s3)c2)n1", "note": "[Example 192, 5-{4-[4-(4-Chloro-phenyl)-6-methyl-pyrimidin-2-yl]-pyridin-2-yl}-thiophene-2-sulfonic acid amide]", "melting point": "232.5 °C"}, {"smiles": "Cc1cc(-c2ccc(Cl)c(Cl)c2)nc(-c2cccc(-c3cccc(S(N)(=O)=O)c3)c2)n1", "note": "[Example 193, 3′-[4-(3,4-Dichloro-phenyl)-6-methyl-pyrimidin-2-yl]-biphenyl-3-sulfonic acid amide]", "melting point": "206.5 °C"}, {"smiles": "Cc1cc(-c2ccc(Cl)c(Cl)c2)nc(-c2ccnc(-c3cccc(S(N)(=O)=O)c3)c2)n1", "note": "[Example 194, 3-{4-[4-(3,4-Dichloro-phenyl)-6-methyl-pyrimidin-2-yl]-pyridin-2-yl}-benzenesulfonamide]", "melting point": "202.5 °C"}, {"smiles": "Cc1cc(-c2ccc(Cl)c(Cl)c2)nc(-c2cccc(-c3ccc(S(N)(=O)=O)s3)c2)n1", "note": "[Example 195, 5-{3-[4-(3,4-Dichloro-phenyl)-6-methyl-pyrimidin-2-yl]-phenyl}-thiophene-2-sulfonic acid Amide]", "melting point": "238 °C"}, {"smiles": "Cc1cc(-c2ccc(Cl)c(Cl)c2)nc(-c2ccnc(-c3ccc(S(N)(=O)=O)s3)c2)n1", "note": "[Example 196, 5-{4-[4-(3,4-Dichloro-phenyl)-6-methyl-pyrimidin-2-yl]-pyridin-2-yl}-thiophene-2-sulfonic acid amide]", "melting point": "267 °C"}, {"smiles": "Cc1cc(-c2ccc(C(F)(F)F)cc2)nc(-c2ccnc(-c3ccc(S(N)(=O)=O)s3)c2)n1", "note": "[Example 197, 5-{4-[4-Methyl-6-(4-trifluoromethyl-phenyl)-pyrimidin-2-yl]-pyridin-2-yl}-thiophene-2-sulfonic acid amide]", "melting point": "263.5 °C"}, {"smiles": "Cc1cc(-c2ccc(Cl)c(Cl)c2)nc(-n2cnc(-c3cccc(S(N)(=O)=O)c3)c2)n1", "note": "[Example 198, 3-{1-[4-(3,4-Dichloro-phenyl)-6-methyl-pyrimidin-2-yl]-1H-imidazol-4-yl}-benzenesulfonamide]", "melting point": "210 °C"}, {"smiles": "Cc1cc(-c2ccc(Cl)c(Cl)c2)nc(-n2cnc(-c3ccc(S(N)(=O)=O)cc3)c2)n1", "note": "[Example 199, 4-{1-[4-(3,4-Dichloro-phenyl)-6-methyl-pyrimidin-2-yl]-1H-imidazol-4-yl}-benzenesulfonamide]", "melting point": "282.5 °C"}, {"smiles": "Cc1cc(-c2ccc(Cl)cc2)nc(-n2cnc(-c3ncc(S(N)(=O)=O)s3)c2)n1", "note": "[Example 200, 2-{1-[4-(4-Chloro-phenyl)-6-methyl-pyrimidin-2-yl]-1H-imidazol-4-yl}-thiazole-5-sulfonic acid amide]", "melting point": "255.5 °C"}, {"smiles": "NS(=O)(=O)c1cccc(-c2cccc(-c3nc(-c4ccc(Cl)c(Cl)c4)cc(C(F)(F)F)n3)c2)c1", "note": "[Example 202, 3′-[4-(3,4-Dichloro-phenyl)-6-trifluoromethyl-pyrimidin-2-yl]-biphenyl-3-sulfonic acid amide]", "melting point": "241 °C"}, {"smiles": "NS(=O)(=O)c1cccc(-c2cc(-c3nc(-c4ccc(Cl)c(Cl)c4)cc(C(F)(F)F)n3)ccn2)c1", "note": "[Example 203, 3-{4-[4-(3,4-Dichloro-phenyl)-6-trifluoromethyl-pyrimidin-2-yl]-pyridin-2-yl}-benzenesulfonamide]", "melting point": "247 °C"}, {"smiles": "NS(=O)(=O)c1ccc(-c2cccc(-c3nc(-c4ccc(Cl)c(Cl)c4)cc(C(F)(F)F)n3)c2)s1", "note": "[Example 204, 5-{3-[4-(3,4-Dichloro-phenyl)-6-trifluoromethyl-pyrimidin-2-yl]-phenyl}-thiophene-2-sulfonic acid amide]", "melting point": "203 °C"}, {"smiles": "NS(=O)(=O)c1ccc(-c2cc(-c3nc(-c4ccc(Cl)c(Cl)c4)cc(C(F)(F)F)n3)ccn2)s1", "note": "[Example 205, 5-{4-[4-(3,4-Dichloro-phenyl)-6-trifluoromethyl-pyrimidin-2-yl]-pyridin-2-yl}-thiophene-2-sulfonic acid amide]", "melting point": "266 °C"}, {"smiles": "Cc1cc(-c2cc(C(F)(F)F)nc(-c3cccc(-c4cccc(S(N)(=O)=O)c4)c3)n2)ccc1C(F)(F)F", "note": "[Example 206, 3′-[4-(3-Methyl-4-trifluoromethyl-phenyl)-6-trifluoromethyl-pyrimidin-2-yl]-biphenyl-3-sulfonic acid amide]", "melting point": "205 °C"}, {"smiles": "Cc1cc(-c2cc(C(F)(F)F)nc(-c3cccc(-c4ccc(S(N)(=O)=O)s4)c3)n2)ccc1C(F)(F)F", "note": "[Example 207, 5-{3-[4-(3-Methyl-4-trifluoromethyl-phenyl)-6-trifluoromethyl-pyrimidin-2-yl]-phenyl}-thiophene-2-sulfonic acid amide]", "melting point": "216 °C"}, {"smiles": "NS(=O)(=O)c1ccc(-c2cn(-c3nc(-c4ccc(Cl)c(Cl)c4)cc(C(F)(F)F)n3)cn2)s1", "note": "[Example 208, 5-{1-[4-(3,4-Dichloro-phenyl)-6-trifluoromethyl-pyrimidin-2-yl]-1H-imidazol-4-yl}-thiophene-2-sulfonic acid amide]", "melting point": "282 °C (dec.)"}, {"smiles": "Cc1cc(-c2cc(C(F)(F)F)nc(-n3cnc(-c4ccc(S(N)(=O)=O)s4)c3)n2)ccc1C(F)(F)F", "note": "[Example 209, 5-{1-[4-(3-Methyl-4-trifluoromethyl-phenyl)-6-trifluoromethyl-pyrimidin-2-yl]-1H-imidazol-4-yl}-thiophene-2-sulfonic acid amide]", "melting point": "260 °C"}, {"smiles": "NS(=O)(=O)c1ccc(-c2cn(-c3nc(-c4ccc(Cl)c(Cl)c4)cc(C(F)(F)F)n3)cn2)cc1", "note": "[Example 211, 4-{1-[4-(3,4-Dichloro-phenyl)-6-trifluoromethyl-pyrimidin-2-yl]-1H-imidazol-4-yl}-benzenesulfonamide]", "melting point": "334 °C"}, {"smiles": "Cc1cc(-c2cc(C(F)(F)F)nc(-n3cnc(-c4ccc(S(N)(=O)=O)cc4)c3)n2)ccc1C(F)(F)F", "note": "[Example 212, 4-{1-[4-(3-Methyl-4-trifluoromethyl-phenyl)-6-trifluoromethyl-pyrimidin-2-yl]-1H-imidazol-4-yl}-benzenesulfonamide]", "melting point": "287 °C"}]}]}
